This is an account of results in patent US20190315823A1, “SMALL CATIONIC ANTI-BIOFILM AND IDR PEPTIDES” (priority 2013, published 2019).

Ends that are not written are not given here.

The subject of experiment [1] is methicillin resistant Staphylococcus aureus (MRSA) biofilm. The note with it: approximate peptide concentration […] (around 3 μg/ml); compared to untreated samples. The method, boiled down:
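Static biofilm assay: 1/100 dilutions of overnight cultures grown in BM2 medium (pH 7, glucose, Casamino Acids) or Luria Broth with peptide added at time zero. After 22–46 h, adherent biofilm was stained with crystal violet and read at 595 nm. Some peptides were also tested on K. pneumoniae under flow in a Bioflux system.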

In experiment [2] the test system is human peripheral blood mononuclear cells (MCP-1). In words: SPOT-synthesized derivative screen: production of chemokine MCP-1. The format is cell-based. The note with it: Table 12, No LPS, human PBMC, peptide at ~18-24 μM; for MCP1: background subtracted 139 (HH2 derivatives), 170 (1018 derivatives), 242 (1002 and hybrid peptides) pg/ml. In a few lines: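 PBMC from heparinized healthy-donor venous blood, Ficoll-separated, cultured at 0.75 to 1×10^6 cells/ml, 37 °C, 5% CO2, under the treatment regimens. MCP-1 in cell-free supernatants measured by capture ELISA.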

Experiment [3] concerns LPS-stimulated human peripheral blood mononuclear cells (IL1-β). The class given is cell-based. The note with it: Table 12, cells stimulated with 10 ng/ml LPS; for IL1β Production: LPS alone 1313 (HH2 derivatives), 1927 (1018 derivatives), 2455 (1002 and hybrid peptides) pg/ml.

Turning to “HH2-Q5: single substituted HH2 peptide (VQLRQRVAVIRA-NH2)”, the “% Biofilm inhibition” value in experiment [1] was 25%. Moreover, in experiment [2], the “Fold increase in MCP1 cf. untreated cells” value (shortened to “Fold increase”) worked out at 4.5 and the “MCP1” value amounted to 603 pg/mL. Further, in experiment [3], the “Fold change in IL1β relative to no peptide LPS stimulated cells” value is 0.98 and the “IL1β Production” value amounted to 1284 pg/mL.
As for “1002-A7: single substituted 1002 peptide (VQRWLIAWRIRK-NH2) [Peptide 1002-A7]”, the “% Biofilm inhibition” value in experiment [1] was 58%. Further, in experiment [2], the “Fold increase” value was 0.9 and the “MCP1” value is -36.2 pg/mL. Also, in experiment [3], the “Fold change in IL1β relative to no peptide LPS stimulated cells” value is 0.05 and the “IL1β Production” value worked out at 132 pg/mL.
For “1018-Q9: single substituted 1018 peptide (VRLIVAVRQWRR-NH2) [Peptide 1018-Q9]”, in that order: 38%, 0.8, -28 pg/mL, 1.00 and 1313 pg/mL.
For the substance “HH2-A10: single substituted HH2 peptide (VQLRIRVAVARA-NH2)”, in experiment [1], the “% Biofilm inhibition” value is 53%. In addition, in experiment [2], the “Fold increase” value was found to be 2.5 and the “MCP1” value was found to be 258 pg/mL. Besides, in experiment [3], the “Fold change in IL1β relative to no peptide LPS stimulated cells” value is recorded as 1.70 and the “IL1β Production” value was 2234 pg/mL.
Turning to “1018-K12: single substituted 1018 peptide (VRLIVAVRIWRK-NH2) [Peptide 1018-K12]”, the “% Biofilm inhibition” value in experiment [1] stood at 67%. Further, in experiment [2], the “Fold increase” value is recorded as 4.1 and the “MCP1” value came to 531 pg/mL. In experiment [3], the “Fold change in IL1β relative to no peptide LPS stimulated cells” value came out at 0.10 and the “IL1β Production” value was determined as 127 pg/mL.
In the case of “1002-A3: single substituted 1002 peptide (VQAWLIVWRIRK-NH2) [Peptide 1002-A3]”, in experiment [1], the “% Biofilm inhibition” value was 65%. In experiment [2], the “Fold increase” value worked out at 4.2 and the “MCP1” value turned out to be 787.2 pg/mL. Besides, in experiment [3], the “Fold change in IL1β relative to no peptide LPS stimulated cells” value worked out at 0.05 and the “IL1β Production” value was 127 pg/mL.
Consider “1018-G3: single substituted 1018 peptide (VRGIVAVRIWRR-NH2) [Peptide 1018-G3]”, for which, in experiment [1], the “% Biofilm inhibition” value is reported as 42%. In experiment [2], the “Fold increase” value came to 1.5 and the “MCP1” value stood at 83 pg/mL. Moreover, in experiment [3], the “Fold change in IL1β relative to no peptide LPS stimulated cells” value amounted to 0.57 and the “IL1β Production” value amounted to 748 pg/mL.
With “1002-I1: single substituted 1002 peptide (IQRWLIVWRIRK-NH2) [Peptide 1002-I1]”, the “% Biofilm inhibition” value in experiment [1] is reported as 64%. For the same substance, in experiment [2], the “Fold increase” value stood at 17.7 and the “MCP1” value was 4059.0 pg/mL. In addition, in experiment [3], the “Fold change in IL1β relative to no peptide LPS stimulated cells” value was 0.05 and the “IL1β Production” value came to 127 pg/mL.
Regarding “1002-L10: single substituted 1002 peptide (VQRWLIVWRLRK-NH2) [Peptide 1002-L10]”, the “% Biofilm inhibition” value in experiment [1] was determined as 65%. Moreover, in experiment [2], the “Fold increase” value amounted to 3.0 and the “MCP1” value is 493.6 pg/mL. Further, in experiment [3], the “Fold change in IL1β relative to no peptide LPS stimulated cells” value was 0.05 and the “IL1β Production” value is 127 pg/mL.
“HH2-A5: single substituted HH2 peptide (VQLRARVAVIRA-NH2)”: in experiment [1], the “% Biofilm inhibition” value was 45%. Also, in experiment [2], the “Fold increase” value amounted to 1.3 and the “MCP1” value turned out to be 59 pg/mL. For the same substance, in experiment [3], the “Fold change in IL1β relative to no peptide LPS stimulated cells” value turned out to be 1.60 and the “IL1β Production” value amounted to 2095 pg/mL.
Turning to “HH2-L4: single substituted HH2 peptide (VQLLIRVAVIRA-NH2)”, the “% Biofilm inhibition” value in experiment [1] came out at 54%. In experiment [2], the “Fold increase” value stood at 18 and the “MCP1” value is 2884 pg/mL. In experiment [3], the “Fold change in IL1β relative to no peptide LPS stimulated cells” value is given as 0.61 and the “IL1β Production” value was 800 pg/mL.
For the substance “HH2-Q1: single substituted HH2 peptide (QQLRIRVAVIRA-NH2)”, the “% Biofilm inhibition” value in experiment [1] worked out at 57%. Further, in experiment [2], the “Fold increase” value stood at 65 and the “MCP1” value turned out to be 10838 pg/mL. In experiment [3], the “Fold change in IL1β relative to no peptide LPS stimulated cells” value is 0.89 and the “IL1β Production” value is 1171 pg/mL.
For “HH2-A1: single substituted HH2 peptide (AQLRIRVAVIRA-NH2)”, in that order: 56%, 14, 2254 pg/mL, 1.21 and 1587 pg/mL.
For “1018-I10: single substituted 1018 peptide (VRLIVAVRIIRR-NH2) [Peptide 1018-I10]”, the “% Biofilm inhibition” value in experiment [1] is listed as 58%. Also, in experiment [2], the “Fold increase” value amounted to 1.3 and the “MCP1” value is 56 pg/mL. Also, in experiment [3], the “Fold change in IL1β relative to no peptide LPS stimulated cells” value was found to be 0.10 and the “IL1β Production” value came to 135 pg/mL.
With “1002-L7: single substituted 1002 peptide (VQRWLILWRIRK-NH2) [Peptide 1002-L7]”, the “% Biofilm inhibition” value in experiment [1] was determined as 57%. In experiment [2], the “Fold increase” value came to 1.8 and the “MCP1” value was 199.1 pg/mL. In experiment [3], the “Fold change in IL1β relative to no peptide LPS stimulated cells” value worked out at 0.05 and the “IL1β Production” value came to 127 pg/mL.
For the substance “1018-Q10: single substituted 1018 peptide (VRLIVAVRIQRR-NH2) [Peptide 1018-Q10]”, the “% Biofilm inhibition” value in experiment [1] amounted to 38%. For the same substance, in experiment [2], the “Fold increase” value is recorded as 0.7 and the “MCP1” value was -54 pg/mL. In addition, in experiment [3], the “Fold change in IL1β relative to no peptide LPS stimulated cells” value is 0.12 and the “IL1β Production” value worked out at 154 pg/mL.
Consider “1002-L9: single substituted 1002 peptide (VQRWLIVWLIRK-NH2) [Peptide 1002-L9]”, for which, in experiment [1], the “% Biofilm inhibition” value came out at 57%. In addition, in experiment [2], the “Fold increase” value is on record as 1.8 and the “MCP1” value came out at 199.1 pg/mL. In addition, in experiment [3], the “Fold change in IL1β relative to no peptide LPS stimulated cells” value is 0.05 and the “IL1β Production” value is 127 pg/mL.
For “1002-R5: single substituted 1002 peptide (VQRWRIVWRIRK-NH2) [Peptide 1002-R5]”, in experiment [1], the “% Biofilm inhibition” value is reported as 62%. In experiment [2], the “Fold increase” value was 0.9 and the “MCP1” value was -36.2 pg/mL. In experiment [3], the “Fold change in IL1β relative to no peptide LPS stimulated cells” value stood at 0.14 and the “IL1β Production” value was determined as 349 pg/mL.
Turning to “1018-V12: single substituted 1018 peptide (VRLIVAVRIWRV-NH2) [Peptide 1018-V12]”, the “% Biofilm inhibition” value in experiment [1] was 56%. In experiment [2], the “Fold increase” value worked out at 1.3 and the “MCP1” value worked out at 56 pg/mL. In addition, in experiment [3], the “Fold change in IL1β relative to no peptide LPS stimulated cells” value is 0.51 and the “IL1β Production” value was 673 pg/mL.
For “1018-W9: single substituted 1018 peptide (VRLIVAVRWWRR-NH2) [Peptide 1018-W9]”, in that order: 69%, 2.5, 247 pg/mL, 0.10 and 127 pg/mL.
For “1002-K7: single substituted 1002 peptide (VQRWLIKWRIRK-NH2) [Peptide 1002-K7]”, in that order: 28%, 0.9, -36.2 pg/mL, 0.12 and 302 pg/mL.
As for “HH2-R5: single substituted HH2 peptide (VQLRRRVAVIRA-NH2)”, in experiment [1], the “% Biofilm inhibition” value is given as 0%. For the same substance, in experiment [2], the “Fold increase” value came to 4.0 and the “MCP1” value worked out at 515 pg/mL. Further, in experiment [3], the “Fold change in IL1β relative to no peptide LPS stimulated cells” value is on record as 1.66 and the “IL1β Production” value worked out at 2186 pg/mL.
The corresponding values for “1002-W3: single substituted 1002 peptide (VQWWLIVWRIRK-NH2) [Peptide 1002-W3]” are 68%, 1.4, 90.4 pg/mL, 0.05 and 127 pg/mL.
Consider “HH2-W1: single substituted HH2 peptide (WQLRIRVAVIRA-NH2)”, for which the “% Biofilm inhibition” value in experiment [1] was found to be 67%. Further, in experiment [2], the “Fold increase” value stood at 29 and the “MCP1” value was found to be 4725 pg/mL. Also, in experiment [3], the “Fold change in IL1β relative to no peptide LPS stimulated cells” value was found to be 0.66 and the “IL1β Production” value worked out at 866 pg/mL.
In the case of “HH2-G11: single substituted HH2 peptide (VQLRIRVAVIGA-NH2)”, in experiment [1], the “% Biofilm inhibition” value is given as 72%. Further, in experiment [2], the “Fold increase” value is 2.0 and the “MCP1” value came out at 177 pg/mL. Also, in experiment [3], the “Fold change in IL1β relative to no peptide LPS stimulated cells” value came out at 0.99 and the “IL1β Production” value was 1303 pg/mL.
